Structures can show the parent of a compound that is named as a salt. Where two headings read alike, the source gives them in different places.
Legend:
[1] = biological target: T1, histamine H2 receptors (Rattus norvegicus, UniProt P25102); assay: antisecretory activity: antagonism of the gastric acid hypersecretion induced by histamine in the atropinized rat (Ghosh and Schild, modified according to Black et al.); format: in vivo; conditions: for ED50: read-out: DI50 (ID50: dose which inhibits by 50% the gastric hypersecretion induced by histamine)
T1 construct: from tissue; host or cells: stomach of the atropinized rat, in vivo (endogenous receptor)
T1 sequence (P25102 whole entry): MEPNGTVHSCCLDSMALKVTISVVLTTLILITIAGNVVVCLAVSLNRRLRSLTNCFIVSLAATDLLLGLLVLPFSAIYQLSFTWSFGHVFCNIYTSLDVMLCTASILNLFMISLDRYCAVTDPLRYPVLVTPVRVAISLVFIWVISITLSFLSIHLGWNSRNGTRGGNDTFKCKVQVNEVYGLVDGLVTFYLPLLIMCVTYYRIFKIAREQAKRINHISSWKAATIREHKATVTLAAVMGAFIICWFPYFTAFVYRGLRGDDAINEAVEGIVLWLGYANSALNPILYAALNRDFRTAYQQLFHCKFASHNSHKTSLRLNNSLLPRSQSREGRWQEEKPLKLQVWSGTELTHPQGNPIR
Method: According to this test, a gastric acid hypersecretion is induced by intravenous infusion of a sub-maximal dose of histamine equivalent to 15 mcmol/kg/hour and the gastric secretion is measured by perfusion of a physiological solution at a constant speed in the stomach of the animal.
Such a ID50 represents the index of the gastric H2 -blocking action.

[2] = acute toxicity by intraperitoneal route in the mouse; format: in vivo; conditions: in vivo, ip
From the text: (§1) With respect of their degree of activity, the compounds of the present invention are poorly toxic.

[3] = tested on: mouse; assay: as above; format: in vivo; conditions: 375 mg/kg
From the text: as §1

[4] = tested on: rat stomach; conditions: i.v., as maleate; cited from earlier work
[5] = atropinized rat, intravenous route, single administration, histamine i.v. infusion 15 mcmol/kg/hour

Compound	Relative potency (cimetidine = 1) ([1]; atropinized rat, i.v.)	ED50 [1, 5]	also measured
CS(=O)(=O)Nc1cccc(C(=O)NCCSCc2csc(NC(=N)N)n2)c1.Cl [SR 57938 A, 3-methanesulfonamido-N-[2-(2-guanidinothiazol-4-ylmethylthio)ethyl]benzamide hydrochloride]	6.33		activity compared with reference compounds ([1]; comparison in words, from Table I, atropinized rat, i.v.): ten times more active than "Compound A"; ED50 ([1]; rat, iv): 0.15 µmol/kg
CS(=O)(=O)Nc1ccc(C(=O)NCCSCc2csc(NC(=N)N)n2)cc1 [Compound A, 4-methanesulfonamido-N-[2-(2-guanidinothiazol-4-ylmethylthio)ethyl]benzamide, reference compound]	0.57	1.66 µmol/kg	
N=C(N)Nc1nc(CSCCNC(=O)c2ccc[n+]([O-])c2)cs1 [SR 57957 A, neutral fumarate of N-[2-(2-guanidinothiazol-4-ylmethylthio)ethyl]-3-pyridine carboxamide 1-oxide]	9.5	0.1 µmol/kg	LD50 [2]: > 900 µmol/kg; mortality [3]: does not cause any mortality
N=C(N)Nc1nc(CSCCNC(=O)c2cccnc2)cs1 [Compound B, N-[2-(2-guanidinothiazol-4-ylmethylthio)ethyl]nicotinamide, reference compound]	7.39	0.28 µmol/kg	LD50 [2]: 342 µmol/kg
CNC(=C[N+](=O)[O-])NCCSCc1ccc(CN(C)C)o1 [Ranitidine, N-[2-[[5-[(dimethylamino)methyl]furfuryl]thio]ethyl]-N'-methyl-2-nitro-1,1-ethenediamine, reference compound]	3.80		
N=C(N)Nc1nc(CSCCNC(=O)c2cccc(NS(=O)(=O)c3ccccc3)c2)cs1 [SR 57963 A, neutral fumarate of 3-benzenesulfonamido-N-[2-(2-guanidinothiazol-4-ylmethylthio)ethyl]benzamide]	14.6	0.065 µmol/kg	
N=C(N)Nc1nc(CSCCNC=O)cs1 [2-guanidino-4-[(2-formamido)ethylthiomethyl]thiazol]			ED50 [4]: 0.25 mg/kg
